Reference: patent US10849907B2, “Imidazopyridine derivatives and the use thereof as medicament” (Boehringer Ingelheim International GmbH, priority 2017, dated 2020)

What was measured:
[1] = Metabolic stability in pooled human liver microsomes; type: in vitro ADME; conditions: pH 7.6; pooled human liver microsomes 1 mg/mL, 1 μM compound, 37° C., NADPH; read-out: Half-life - t½ human liver microsomes
Excerpt: Stability in human liver microsomes refers to the susceptibility of compounds to biotransformation in the context of selecting and/or designing drugs with favorable pharmacokinetic properties. The primary site of metabolism for many drugs is the liver. Human liver microsomes contain the cytochrome P450s (CYPs), and thus represent a model system for studying drug metabolization in vitro. Enhanced stability in human liver microsomes is associated with several advantages, including increased bioavailability and adequate half-life, which can enable lower and less frequent dosing of patients. Thus, enhanced stability in human liver microsomes is a favorable characteristic for compounds that are to be used for drugs.
The metabolic degradation of the test compound was assayed at 37° C. with pooled human liver microsomes. The final incubation volume of 60 μl per time point contains TRIS buffer pH 7.6 at room temperature (0.1 M), magnesium chloride (5 mM aqueous solution), microsomal protein (1 mg/mL for human) and the test compound at a final concentration of 1 μM. Following a short preincubation period at 37° C., the reactions were initiated by addition of betanicotinamide adenine dinucleotide phosphate, reduced form (NADPH, 1 mM), and terminated by transferring an aliquot into solvent after different time points. After centrifugation (10000 g, 5 min), an aliquot of the supernatant was assayed by LC-MS/MS for the amount of parent compound. The half-life was determined by the slope of the semi-logarithmic plot of the concentration-time profile.

NMDA NR1/NR2B receptor = target: T1, NMDA NR1/NR2B receptor (Homo sapiens, UniProt Q05586+Q13224); assay: In vitro NMDA NR1/NR2b cell assay (FLIPR, intracellular calcium induced by glycine/glutamate); type: cell-based; conditions: HEK293 cells expressing NMDA NR1/NR2B, 20 μM glycine, 1 μM glutamate, compounds of the invention (Table 1)
T1 construct: host or cells: HEK293, tetracycline-inducible expression
T1 sequence (Q13224 27-1484, other chains not shown): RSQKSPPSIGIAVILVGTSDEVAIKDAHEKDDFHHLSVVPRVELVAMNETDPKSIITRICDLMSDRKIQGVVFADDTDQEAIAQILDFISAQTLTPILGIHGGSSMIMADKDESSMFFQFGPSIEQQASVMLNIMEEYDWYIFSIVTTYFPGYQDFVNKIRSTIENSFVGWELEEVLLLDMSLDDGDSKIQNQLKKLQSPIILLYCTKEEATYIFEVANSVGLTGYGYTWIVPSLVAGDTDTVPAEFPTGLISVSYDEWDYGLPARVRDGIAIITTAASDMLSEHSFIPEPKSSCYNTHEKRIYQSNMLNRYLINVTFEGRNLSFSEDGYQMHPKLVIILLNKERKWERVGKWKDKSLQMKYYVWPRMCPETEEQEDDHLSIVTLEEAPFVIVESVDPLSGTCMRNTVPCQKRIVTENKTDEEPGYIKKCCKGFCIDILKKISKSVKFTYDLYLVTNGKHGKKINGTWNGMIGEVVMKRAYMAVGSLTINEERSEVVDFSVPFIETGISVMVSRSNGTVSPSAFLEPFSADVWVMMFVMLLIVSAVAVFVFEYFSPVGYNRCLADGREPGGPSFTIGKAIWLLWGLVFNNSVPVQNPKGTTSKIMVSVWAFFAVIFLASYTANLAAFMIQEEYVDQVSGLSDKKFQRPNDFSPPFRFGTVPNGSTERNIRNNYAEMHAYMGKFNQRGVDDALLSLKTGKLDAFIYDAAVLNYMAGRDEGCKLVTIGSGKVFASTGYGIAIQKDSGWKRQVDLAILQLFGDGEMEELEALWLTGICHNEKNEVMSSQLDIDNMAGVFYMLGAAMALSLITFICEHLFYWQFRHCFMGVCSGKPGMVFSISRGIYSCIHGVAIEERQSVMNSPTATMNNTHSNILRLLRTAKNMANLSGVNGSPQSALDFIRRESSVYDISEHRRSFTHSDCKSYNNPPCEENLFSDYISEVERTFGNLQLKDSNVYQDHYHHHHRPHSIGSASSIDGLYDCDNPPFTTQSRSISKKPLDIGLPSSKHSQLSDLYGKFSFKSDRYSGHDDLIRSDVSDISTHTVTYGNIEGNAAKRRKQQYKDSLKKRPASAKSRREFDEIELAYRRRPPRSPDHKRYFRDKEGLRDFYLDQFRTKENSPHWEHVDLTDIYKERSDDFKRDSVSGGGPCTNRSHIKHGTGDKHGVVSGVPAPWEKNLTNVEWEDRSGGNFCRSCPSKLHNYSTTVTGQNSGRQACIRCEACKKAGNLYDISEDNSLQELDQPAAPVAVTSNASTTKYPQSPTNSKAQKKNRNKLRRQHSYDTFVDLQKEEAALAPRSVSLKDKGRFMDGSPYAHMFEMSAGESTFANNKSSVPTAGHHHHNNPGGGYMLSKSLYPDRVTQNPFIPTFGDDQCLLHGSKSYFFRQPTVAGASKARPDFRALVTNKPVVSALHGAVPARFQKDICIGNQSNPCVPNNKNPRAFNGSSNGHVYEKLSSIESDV
Description: A human HEK293 cell line with tetracyclin-inducible expression of NMDA NR1/NR2B receptor was used as a test system for compound efficacy and potency. The cell line was purchased from ChanTest, Catalog # CT6121. Compound activity was determined by measuring the effect of compounds on intracellular calcium concentration induced by glycine/glutamate agonism in a FLIPRtetra system (Molecular Devices).
The cells were obtained as frozen cells in cryo-vials and stored until use at −150° C. Cells were grown in culture medium (DMEM/F12, 10% FBS, 5 μg/mL Blasticidin, 150 μg/mL Zeozin, 500 μg/mL Geneticin). […] For sub-culturing the cells were detached from flasks by Versene. For the assay, cells were detached, washed twice with induction medium (DMEM/F12 without glutamine, 10% FBS, 2 μg/mL Tetracycline, 2 mM Ketamine) and seeded to 384 well pure coat amine plates (BD 359324, 50000 cells per well in 50 μl) 48 h prior to assay in induction medium.
The test compounds were dissolved in 100% DMSO at a concentration of 10 mM and in a first step diluted in DMSO to a concentration of 5 mM, followed by serial dilution steps in 100% DMSO. Dilution factor and number of dilution steps may vary according to needs. Typically 8 different concentrations by 1:5 dilutions were prepared in duplicate, further intermediate dilutions (1:37.5) of the substances were carried out with aqueous assay buffer (137 mM NaCl, 4 mM KCl, 1.8 mM CaCl, 10 mM HEPES, 10 mM Glucose, pH 7.4) resulting in a compound concentration 3 times above the final test concentration and DMSO at 2.7% resulting in 0.9% final DMSO concentration in the assay.
At the assay day cells were washed 3× with assay puffer, 10 μL buffer remained in the wells after washing. 10 μL Ca kit loading buffer (AAT Bioquest) was added to the cells and the plates were incubated with lid for 60 minutes at r.t. 20 μl assay buffer containing 60 μM glycine (20 μM final) and 3 μM glutamate (1 μM final) was added to column 1-23. Fluorescence (indicating the calcium influx as a result of the NR1/NR2B ion channel activation) was read on the FLIPRtetra device for 60 seconds to monitor the glutamate induced effects. After 2 minutes 20 μL of compound or controls (row 1-22) in assay buffer were carefully added to the wells. […] The average of 2 measurements at 5 minutes and 5 min 10 seconds after compound addition is calculated and further used for IC50 calculations. Each assay microtiter plate contained wells (in column 23 or 24) with DMSO controls instead of compound as controls for glycine/glutamate induced fluorescence (high controls) and wells with 1 μM of a reference NR2b NAM as low controls (Compound 22; reference: Layton, Mark E et al, ACS Chemical Neuroscience 2011, 2(7), 352-362).
The output file of the reader contains the well number and measured average fluorescence units. For data evaluation and calculation, the measurement of the low control was set as 0% control and the measurement of the high control was set as 100% control. The IC50 values were calculated using the standard 4 parameter logistic regression formula. Calculation: [y=(a−d)/(1+(x/c)^b)+d], a=low value, d=high value; x=conc M; c=IC50 M; b=slope.

human MDR1 (P-gp) = target: T2, human MDR1 (P-gp) (Homo sapiens, UniProt P08183); assay: MDCK assay MDR-1 (p-GP): permeability across MDCK-MDR1 monolayers; type: in vitro ADME; conditions: for Papp A→B: MDCK-MDR1 monolayers, apical-to-basal, pH 7.4, 1 or 10 μM; for efflux ratio: pH 7.4, MDCK-MDR1, Papp (b-a) divided by Papp (a-b)
T2 construct: expressed in transfected cells; host or cells: MDCKII (Madin-Darby canine kidney) cells
T2 sequence (P08183 whole entry): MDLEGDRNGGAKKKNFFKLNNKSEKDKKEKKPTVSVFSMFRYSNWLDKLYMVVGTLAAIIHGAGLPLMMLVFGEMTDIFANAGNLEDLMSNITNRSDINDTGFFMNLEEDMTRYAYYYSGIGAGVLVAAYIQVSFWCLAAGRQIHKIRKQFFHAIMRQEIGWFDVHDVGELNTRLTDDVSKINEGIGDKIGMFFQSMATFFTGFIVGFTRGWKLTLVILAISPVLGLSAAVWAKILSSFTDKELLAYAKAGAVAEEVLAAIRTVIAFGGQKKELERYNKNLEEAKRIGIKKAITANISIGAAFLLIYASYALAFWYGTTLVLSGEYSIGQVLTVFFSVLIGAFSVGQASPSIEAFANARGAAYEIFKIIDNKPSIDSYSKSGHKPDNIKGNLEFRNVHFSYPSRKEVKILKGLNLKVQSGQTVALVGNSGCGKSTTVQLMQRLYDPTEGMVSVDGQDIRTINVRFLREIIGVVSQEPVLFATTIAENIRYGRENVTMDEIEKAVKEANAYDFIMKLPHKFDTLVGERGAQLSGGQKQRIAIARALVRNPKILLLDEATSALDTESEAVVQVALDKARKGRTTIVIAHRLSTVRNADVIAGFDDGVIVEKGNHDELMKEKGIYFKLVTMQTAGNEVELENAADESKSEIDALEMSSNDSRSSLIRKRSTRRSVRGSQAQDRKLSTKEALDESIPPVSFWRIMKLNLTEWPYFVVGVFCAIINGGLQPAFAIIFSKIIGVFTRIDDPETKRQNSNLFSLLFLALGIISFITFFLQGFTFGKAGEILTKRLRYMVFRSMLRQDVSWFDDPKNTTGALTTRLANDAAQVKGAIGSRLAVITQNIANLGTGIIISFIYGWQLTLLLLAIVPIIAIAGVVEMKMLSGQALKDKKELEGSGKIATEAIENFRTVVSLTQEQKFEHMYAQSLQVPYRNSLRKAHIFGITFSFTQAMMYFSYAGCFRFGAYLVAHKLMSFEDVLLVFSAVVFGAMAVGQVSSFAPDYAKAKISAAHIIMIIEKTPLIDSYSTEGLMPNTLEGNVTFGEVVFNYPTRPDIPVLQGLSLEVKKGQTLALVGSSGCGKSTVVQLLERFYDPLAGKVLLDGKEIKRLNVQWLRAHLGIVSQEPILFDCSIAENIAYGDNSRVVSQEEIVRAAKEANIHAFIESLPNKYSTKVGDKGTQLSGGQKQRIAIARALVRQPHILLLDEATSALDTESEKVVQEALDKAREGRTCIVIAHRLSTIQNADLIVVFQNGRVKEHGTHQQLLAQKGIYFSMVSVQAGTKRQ
Description: The MDCK assays provide information on the potential of a compound to pass the blood brain barrier. Permeability measurements across polarized, confluent MDCK-MDR1 cell monolayers grown on permeable filter supports are used as an in vitro absorption model: apparent permeability coefficients (PE) of the compounds across the MDCK-MDR1 cell monolayers are measured (pH 7.4, 37° C.) in apical-to-basal (AB) and basal-to-apical (BA) transport direction. The AB permeability (PEAB) represents drug absorption from the blood into the brain and the BA permeability (PEBA) drug efflux from the brain back into the blood via both, passive permeability as well as active transport mechanisms mediated by efflux and uptake transporters that are expressed on the MDCK-MDR1 cells, predominantly by the overexpressed human MDR1. Identical or similar permeabilities in both transport directions indicate passive permeation, vectorial permeability points to additional active transport mechanisms. Higher PEBA than PEAB (PEBA/PEAB >5) indicates the involvement of active efflux mediated by MDR1, which might compromise the goal to achieve sufficient brain exposure. Therefore, this assay provides valuable support for selection of compounds applicable for further in vivo testing. High permeability not limited by efflux at the blood brain barrier is a favourable characteristic for compounds that are to be used for drugs acting primarily in the CNS. Similar concepts are applicable to the MDCK BCRP assay and its interpretation; consequently, to ensure high permeability at the blood brain barrier, it is highly preferred to minimize the efflux (efflux <5) at both MDR1 and BCRP transporters.
Apparent permeability coefficients (Papp) of the compounds across the MDCK-MDR1 monolayers (MDCKII cells transfected with human MDR1 cDNA expression plasmid) are measured in apical-to-basal (AB) and basal-to-apical (BA) direction.
MDCK-MDR1 cells (6×10^5 cells/cm^2) are seeded on filter inserts (Corning, Transwell, polycarbonate, 0.4 μm pore size) and cultured for 9 to 10 days. Compounds dissolved in DMSO stock solution (1-20 mM) are diluted with HTP-4 aqueous buffer (128.13 mM NaCl, 5.36 mM KCl, 1 mM MgSO4, 1.8 mM CaCl2, 4.17 mM NaHCO3, 1.19 mM Na2HPO4, 0.41 mM NaH2PO4, 15 mM HEPES, 20 mM glucose, pH 7.4) supplemented with 0.25% BSA to prepare the transport solutions (final concentration: 1 or 10 μM, final DMSO <=0.5%). The transport solution is applied to the apical or basolateral donor side for measuring A-B or B-A permeability, respectively. The receiver side contains HTP-4 buffer supplemented with 0.25% BSA. Samples are collected at the start and end of experiment from the donor and at various time intervals for up to 2 hours also from the receiver side for concentration measurement by HPLC-MS/MS. Sampled receiver volumes are replaced with fresh receiver solution. Efflux ratio is calculated dividing the Papp (b-a) values by the Papp (a-b) values.

Structure (SMILES) | half-life at 1 µM [1] [min] | IC50 (NMDA NR1/NR2B receptor) [nM] | Papp A→B (human MDR1 (P-gp)) [×10⁻⁶ cm/s] | efflux ratio (human MDR1 (P-gp))
Cc1cc(F)ccc1COC(=O)N1CCO[C@H](c2nc3cccnc3[nH]2)C1 [Example 4] | 24 | 228 |  | 
Cc1ccnc2[nH]c([C@@H]3CN(C(=O)OCc4ccc(F)cc4)CCO3)nc12 [Example 6] | 40 | 475 | 44.4 | 1.48
Cc1cccc(COC(=O)N2CCO[C@H](c3nc4cccnc4[nH]3)C2)c1 [Example 9] | 22 | 293 | 49 | 1.16
O=C(OCc1ccc(F)c(F)c1)N1CCO[C@H](c2nc3cccnc3[nH]2)C1 [Example 24] |  | 748 |  | 
O=C(OCc1ccc(Cl)c(F)c1)N1CCO[C@H](c2nc3cccnc3[nH]2)C1 [Example 25] |  | 477 |  | 
